± gives the expanded uncertainty stated by the source.
Experiment: mn = molality of the nth substance listed, in mol/kg
Details: 101.3 kPa, Liquid; for viscosity: Capillary tube (Ostwald / Ubbelohde) method

Compound: O=[N+]([O-])[O-].O=[N+]([O-])[O-].[Zn+2] [nitric acid, zinc salt] + O
- speed of sound (313.15 K, m1 = 0.3388): 1540.3 ± 4.1 m/s
- speed of sound (313.15 K, m1 = 0.6111): 1548.3 ± 4.1 m/s
- speed of sound (313.15 K, m1 = 0.6405): 1550.9 ± 4.1 m/s
- speed of sound (313.15 K, m1 = 1.113): 1571.8 ± 4.2 m/s
- speed of sound (313.15 K, m1 = 1.258): 1580.9 ± 4.2 m/s
- speed of sound (313.15 K, m1 = 1.551): 1595.3 ± 4.2 m/s
- speed of sound (313.15 K, m1 = 1.906): 1613.8 ± 4.3 m/s
- speed of sound (313.15 K, m1 = 2.145): 1624.5 ± 4.3 m/s
- speed of sound (313.15 K, m1 = 2.29): 1630.2 ± 4.3 m/s
- speed of sound (313.15 K, m1 = 2.292): 1631.4 ± 4.3 m/s
- speed of sound (313.15 K, m1 = 2.344): 1634.6 ± 4.3 m/s
- speed of sound (313.15 K, m1 = 2.91): 1659.9 ± 4.4 m/s
- speed of sound (313.15 K, m1 = 3.472): 1683.4 ± 4.4 m/s
- speed of sound (313.15 K, m1 = 4.075): 1702.8 ± 4.5 m/s
- speed of sound (313.15 K, m1 = 4.817): 1727.1 ± 4.6 m/s
- speed of sound (313.15 K, m1 = 5.224): 1733.1 ± 4.6 m/s
- speed of sound (313.15 K, m1 = 5.797): 1742.3 ± 4.6 m/s
- speed of sound (313.15 K, m1 = 6.34): 1747.6 ± 4.6 m/s
- speed of sound (313.15 K, m1 = 6.89): 1751.5 ± 4.6 m/s
- speed of sound (313.15 K, m1 = 7.349): 1751.7 ± 4.7 m/s
- mass density (313.3 K, m1 = 2.145): 1277.4 ± 1 kg/m3
- mass density (313.55 K, m1 = 0.1329): 1011.2 ± 0.8 kg/m3
- mass density (313.85 K, m1 = 0.6111): 1080.1 ± 0.8 kg/m3
- mass density (313.95 K, m1 = 1.906): 1248.8 ± 1 kg/m3
- mass density (313.95 K, m1 = 2.29): 1293.8 ± 1.1 kg/m3
- mass density (314 K, m1 = 5.8): 1619.4 ± 1.5 kg/m3
- mass density (314.1 K, m1 = 0.0875): 1004.4 ± 0.8 kg/m3
- mass density (314.15 K, m1 = 7.764): 1746 ± 1.7 kg/m3
- mass density (314.2 K, m1 = 2.344): 1300 ± 1.1 kg/m3
- mass density (314.25 K, m1 = 0.6405): 1084 ± 0.8 kg/m3
- mass density (314.35 K, m1 = 0.2466): 1027.8 ± 0.8 kg/m3
- mass density (314.35 K, m1 = 7.349): 1722 ± 1.7 kg/m3
- mass density (314.45 K, m1 = 0.3388): 1041 ± 0.8 kg/m3
- mass density (314.6 K, m1 = 2.91): 1362 ± 1.1 kg/m3
- mass density (314.7 K, m1 = 4.817): 1542.3 ± 1.4 kg/m3
- mass density (314.95 K, m1 = 1.551): 1204.4 ± 1 kg/m3
- mass density (314.95 K, m1 = 4.075): 1477.2 ± 1.3 kg/m3
- mass density (315.05 K, m1 = 1.113): 1147.9 ± 0.9 kg/m3
- mass density (315.05 K, m1 = 6.89): 1692.9 ± 1.6 kg/m3
- mass density (315.1 K, m1 = 3.472): 1419.3 ± 1.2 kg/m3
- mass density (315.9 K, m1 = 6.34): 1655.7 ± 1.6 kg/m3
- mass density (315.95 K, m1 = 0.1329): 1010.2 ± 0.8 kg/m3
- mass density (315.95 K, m1 = 7.349): 1720.2 ± 1.7 kg/m3
- mass density (316.15 K, m1 = 0.6111): 1079 ± 0.8 kg/m3
- mass density (316.2 K, m1 = 2.292): 1292.7 ± 1.1 kg/m3
- mass density (316.4 K, m1 = 0.6405): 1082.8 ± 0.8 kg/m3
- mass density (316.6 K, m1 = 5.224): 1573.5 ± 1.4 kg/m3
- mass density (316.75 K, m1 = 0.0875): 1003.3 ± 0.8 kg/m3
- mass density (316.8 K, m1 = 0.2466): 1026.7 ± 0.8 kg/m3
- mass density (316.8 K, m1 = 0.3388): 1039.9 ± 0.8 kg/m3
- mass density (316.85 K, m1 = 1.258): 1166.1 ± 0.9 kg/m3
- mass density (316.9 K, m1 = 1.551): 1203.1 ± 1 kg/m3
- mass density (317.15 K, m1 = 2.145): 1274.9 ± 1.1 kg/m3
- mass density (317.25 K, m1 = 1.113): 1146.8 ± 0.9 kg/m3
- mass density (317.5 K, m1 = 5.8): 1616 ± 1.5 kg/m3
- mass density (317.6 K, m1 = 7.764): 1742.3 ± 1.7 kg/m3
- mass density (317.65 K, m1 = 7.349): 1718.4 ± 1.7 kg/m3
- mass density (317.8 K, m1 = 2.29): 1291.2 ± 1.1 kg/m3
- mass density (317.9 K, m1 = 1.906): 1246.3 ± 1 kg/m3
- mass density (317.9 K, m1 = 2.344): 1297.2 ± 1.1 kg/m3
- viscosity (318.15 K, m1 = 0.1329): 0.632 ± 0.007 mPa·s
- viscosity (318.15 K, m1 = 0.2466): 0.655 ± 0.008 mPa·s
- viscosity (318.15 K, m1 = 0.3388): 0.676 ± 0.008 mPa·s
- viscosity (318.15 K, m1 = 0.6111): 0.738 ± 0.009 mPa·s
- viscosity (318.15 K, m1 = 0.6405): 0.745 ± 0.009 mPa·s
- viscosity (318.15 K, m1 = 1.113): 0.873 ± 0.01 mPa·s
- viscosity (318.15 K, m1 = 1.258): 0.926 ± 0.011 mPa·s
- viscosity (318.15 K, m1 = 1.551): 1.014 ± 0.012 mPa·s
- viscosity (318.15 K, m1 = 1.906): 1.169 ± 0.014 mPa·s
- viscosity (318.15 K, m1 = 2.145): 1.287 ± 0.015 mPa·s
- viscosity (318.15 K, m1 = 2.29): 1.35 ± 0.016 mPa·s
- viscosity (318.15 K, m1 = 2.344): 1.366 ± 0.016 mPa·s
- viscosity (318.15 K, m1 = 2.91): 1.68 ± 0.02 mPa·s
- viscosity (318.15 K, m1 = 3.472): 2.088 ± 0.025 mPa·s
- viscosity (318.15 K, m1 = 4.075): 2.588 ± 0.031 mPa·s
- viscosity (318.15 K, m1 = 4.817): 3.383 ± 0.042 mPa·s
- viscosity (318.15 K, m1 = 5.224): 3.857 ± 0.048 mPa·s
- viscosity (318.15 K, m1 = 5.797): 4.807 ± 0.06 mPa·s
- viscosity (318.15 K, m1 = 6.34): 5.725 ± 0.072 mPa·s
- viscosity (318.15 K, m1 = 6.89): 6.968 ± 0.087 mPa·s
- viscosity (318.15 K, m1 = 7.349): 8.113 ± 0.1 mPa·s
- speed of sound (318.15 K, m1 = 0.0875): 1540.1 ± 4.1 m/s
- speed of sound (318.15 K, m1 = 0.1329): 1539.2 ± 4.1 m/s
- speed of sound (318.15 K, m1 = 0.2466): 1542.8 ± 4.1 m/s
- speed of sound (318.15 K, m1 = 0.3388): 1544.7 ± 4.1 m/s
- speed of sound (318.15 K, m1 = 0.6111): 1555.1 ± 4.1 m/s
- speed of sound (318.15 K, m1 = 0.6405): 1557.5 ± 4.1 m/s
- speed of sound (318.15 K, m1 = 1.113): 1574.6 ± 4.2 m/s
- speed of sound (318.15 K, m1 = 1.258): 1583.5 ± 4.2 m/s
- speed of sound (318.15 K, m1 = 1.551): 1597.5 ± 4.2 m/s
- speed of sound (318.15 K, m1 = 1.906): 1606.7 ± 4.3 m/s
- speed of sound (318.15 K, m1 = 2.145): 1623.3 ± 4.3 m/s
- speed of sound (318.15 K, m1 = 2.29): 1629.6 ± 4.3 m/s
- mass density (318.15 K, m1 = 2.292): 1291.3 ± 1.1 kg/m3
- speed of sound (318.15 K, m1 = 2.292): 1631.3 ± 4.3 m/s

Source: the NIST ThermoML archive (doi:10.1021/je0302001)
